Experimental data reported in PubChem BioAssay AID1845206 (Molecular Pharmacology Branch, DTP, NCI, 2023).
Active and inactive are the calls of the source. The calls were made as follows: active = viability on the fitted dose curve at most 10% of control; inactive = the rest.

Tested on: NCI-H1618 multicellular tumor spheroid viability
Assay: Anticancer human tumor NCI-H1618 cell line growth inhibition;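 also: spheroids exposed to agents for 7 days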
Conditions: for IC50: curve of first compound; for viability, T/C: stronger effect = lower value
In short: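 Complex tumor spheroids combined malignant cells with endothelial cells and mesenchymal stem cells. DNA-damaging drugs and DNA repair inhibitors were tested alone and in combination, at half-log dilutions down from clinical Cmax (top 10 microM if Cmax unknown), 0.25% DMSO final.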

[1] = second compound 1 µM, first compound 0.0316 µM
[2] = second compound 1 µM, first compound 0.1 µM
[3] = second compound 1 µM, first compound 0.316 µM
[4] = second compound 1 µM, first compound 1 µM
[5] = second compound 1 µM, first compound 3.16 µM
[6] = second compound 1 µM, first compound 10 µM
[7] = second compound 3.16 µM, first compound 0.0316 µM
[8] = second compound 3.16 µM, first compound 0.1 µM
[9] = second compound 3.16 µM, first compound 0.316 µM
[10] = second compound 3.16 µM, first compound 1 µM
[11] = second compound 3.16 µM, first compound 3.16 µM
[12] = second compound 3.16 µM, first compound 10 µM
[13] = second compound 10 µM, first compound 0.0316 µM
[14] = second compound 10 µM, first compound 0.1 µM
[15] = second compound 10 µM, first compound 0.316 µM
[16] = second compound 10 µM, first compound 1 µM
[17] = second compound 10 µM, first compound 3.16 µM
[18] = second compound 10 µM, first compound 10 µM
[19] = second compound 31.6 µM, first compound 0.0316 µM
[20] = second compound 31.6 µM, first compound 0.1 µM
[21] = second compound 31.6 µM, first compound 0.316 µM
[22] = second compound 31.6 µM, first compound 1 µM
[23] = second compound 31.6 µM, first compound 3.16 µM
[24] = second compound 31.6 µM, first compound 10 µM
[25] = second compound 100 µM, first compound 0.0316 µM
[26] = second compound 100 µM, first compound 0.1 µM
[27] = second compound 100 µM, first compound 0.316 µM
[28] = second compound 100 µM, first compound 1 µM
[29] = second compound 100 µM, first compound 3.16 µM
[30] = second compound 100 µM, first compound 10 µM

SMILES | IC50 (second compound 1 µM) [nM] | IC50 (second compound 3.16 µM) [nM] | IC50 (second compound 10 µM) [nM] | IC50 (second compound 31.6 µM) [nM] | IC50 (second compound 100 µM) [nM] | viability, T/C [2] [%] | outcome [4] | viability, T/C [5] [%] | viability, T/C [6] [%] | viability, T/C [7] [%] | viability, T/C [8] [%] | viability, T/C [9] [%] | viability, T/C [10] [%] | viability, T/C [11] [%] | viability, T/C [12] [%] | viability, T/C [13] [%] | viability, T/C [14] [%] | viability, T/C [15] [%] | viability, T/C [16] [%] | viability, T/C [17] [%] | further results
COc1cc(C)[nH]c(=O)c1CN1CCc2c(Cl)cc(C(OC)C3COC3)c(Cl)c2C1=O (stereo not given) + Cn1nnc2c(C(N)=O)ncn2c1=O | > 10000 | < 31.6 | < 31.6 | < 31.6 | < 31.6 | 77.7 | inactive | 69.6 | 72.8 | 14.2 | 16.2 | 20.3 | 10.3 | 15.8 | 15.4 | 3.15 | 6.34 | 4.96 | 18.4 | 3.33 | outcome [1]: inactive; outcome [3]: inactive; viability, T/C [18]: 4.36%; viability, T/C [19]: 6.62%; viability, T/C [20]: 13.3%; viability, T/C [21]: 3.61%; viability, T/C [22]: 5.57%; viability, T/C [23]: 10.4%; viability, T/C [24]: 13%; viability, T/C [25]: 45.3%; viability, T/C [26]: 41.6%; viability, T/C [27]: 29.8%; viability, T/C [28]: 39.6%; viability, T/C [29]: 18.3%; viability, T/C [30]: 45.1%
Cc1cc(C)c(CNC(=O)c2cc(-c3ccc(CN4CCOCC4)cc3)cc3c2cnn3C2CCCC2)c(=O)[nH]1 + Cn1nnc2c(C(N)=O)ncn2c1=O | > 10000 | < 31.6 | < 31.6 | < 31.6 | < 31.6 | 82.9 | inactive | 82.3 | 78.8 | 24.3 | 13.1 | 16.6 | 22 | 14.7 | 19.3 | 4.25 | 19.8 | 10.5 | 3.64 | 5.17 | viability, T/C [1]: 88.9%; viability, T/C [3]: 89.8%; viability, T/C [18]: 4.06%; viability, T/C [19]: 18.2%; viability, T/C [20]: 20.3%; viability, T/C [21]: 20.4%; viability, T/C [22]: 5.16%; viability, T/C [23]: 13.7%; viability, T/C [24]: 12%; viability, T/C [25]: 34.9%; viability, T/C [26]: 63.6%; viability, T/C [27]: 52.6%; viability, T/C [28]: 46.8%; viability, T/C [29]: 66.2%; viability, T/C [30]: 44.2%
